Structures can show the parent of a compound that is named as a salt.
Columns and labels:
Dopamine D1 = Dopamine D1 (Homo sapiens, UniProt P21728); assay: Dopamine D1 binding
Source text: Further, the compounds of the invention may be tested in binding assays and functional activity assays by well known methods for other physiologically important receptors such as, but not limited to, the hERG channel, other serotonin receptors (specifically 5-HT1B and 5-HT1D receptors, lack of agonist activity at 5-HT2B receptors, 5-HT2C, 5-HT5, 5-HT6, and 5-HT7 receptors), dopaminergic receptors (specifically D1, D2, and D3), GABAA receptors, adrenergic receptors and monoamine transporters.

male Wistar rats = assay: Sleep and behavioral monitoring in rats (EEG, EMG, motion); type: in vivo; conditions: for Rebound Insomnia Adj. Mean: NREM+REM sleep in 7th-9th hours post-treatment; for Rebound Insomnia Adj. Mean / Cumulative Total sleep Adj. Mean / REM inhibition Adj. Mean / Cumulative NREM sleep Adj. Mean / Locomotor Activity Intensity Adj. Mean: adjusted difference from vehicle; for Cumulative Total sleep Adj. Mean: NREM+REM; for Cumulative Total sleep Adj. Mean / Average Sleep Bout Adj. Mean / Longest Sleep Bout Adj. Mean / Cumulative NREM sleep Adj. Mean / Locomotor Activity Intensity Adj. Mean: first 6 hr. post-treatment; for REM inhibition Adj. Mean: cumulative REM sleep, first 12 hr. post-treatment
Experimental: The compound of the present invention is tested in rats for its ability to increase the amount of sleep or decrease sleep interruption or both without undesired effects such as inhibition of REM sleep, waking motor impairment, and/or rebound insomnia. Test animals are continuously monitored by electro-encephalograms (EEG), electromyograms (EMG), and motion to measure cumulative nonREM sleep, cumulative total sleep, average sleep bout duration, longest sleep bout duration, rebound insomnia, REM sleep inhibition and locomotor activity intensity during wakefulness. Methods for such studies are known in the art (see for example methods described in Edgar D M, Seidel W F. Modafinil induces wakefulness without intensifying motor activity or subsequent rebound hypersomnolence in the rat. J Pharmacology & Experimental Therapeutics 1997; 283: 757-769; van Gelder R N, Edgar D M, Dement W C. Real-time automated sleep scoring: validation of a microcomputer-based system for mice. Sleep 1991, 14: 48-55; and Gross B A, Walsh C M, Turakhia A A, Booth V, Mashour G A, Poe G R. Open-source logic-based automated sleep scoring software using electrophysiological recordings in rats. J Neurosci Methods. 2009; 184(1):10-8.) Studies are conducted as follows:
Adult, male Wistar rats (approximately 270-300 g at time of surgery) are surgically fitted for chronic recording of EEG, EMG, and motion as follows: Rats are surgically prepared with a cranial implant consisting of four stainless steel screws for EEG recording (two frontal [3.9 mm anterior from bregma, and ±2.0 mm mediolaterally] and two occipital [6.4 mm posterior from bregma, ±5.5 mm mediolaterally]), and with two Teflon-coated stainless steel wires for EMG recording (positioned under the nuchal trapezoid muscles). All leads are soldered to a miniature connector (Microtech, Boothwyn, Pa.) prior to surgery. The implant assembly is affixed to the skull by the combination of the stainless steel EEG recording screws, cyanoacrylate applied between the implant connector and skull, and dental acrylic. Locomotor activity is monitored via a miniature transmitter (Minimitter PDT4000G, Philips Respironics, Bend, Oreg.) surgically placed into the abdomen. At least 3 weeks are allowed for recovery.
Each rat is housed individually within a microisolator cage modified with an inserted polycarbonate filter-top riser to allow more vertical headroom. A flexible cable that minimally restricts movement is connected at one end to a commutator afixed to the cage top and at the other end to the animal's cranial implant. Each cage is located within separate, ventilated compartments of a stainless steel sleep-wake recording chamber. Food and water are available ad libitum and the ambient temperature is maintained at about 23±1° C. A 24-hr light-dark cycle (LD 12:12) using fluorescent light is maintained throughout the study. Relative humidity averages approximately 50%. Animals are undisturbed for at least 30 his before and after each treatment.
The vehicle (placebo, methylcellulose 15 centipoise 0.25% in water) or one of the test compound dose levels is administered orally at 1 mL/kg pseudo-randomly such that no rat receives the same treatment twice, and no rat receives more than two of the 8 treatments in any one study. Each rat is removed from its cage for about a minute to be weighed and treated. At least 6 days “washout” period precede and follow each treatment. […]

[1] = threshold efficacy dose, 6 hr. after treatment, 4 parameter logistic regression, freebase
[2] = within 10 times the most conservative efficacy dose (0.78 mg/kg)

Dopamine D1, sequence (P21728 whole entry): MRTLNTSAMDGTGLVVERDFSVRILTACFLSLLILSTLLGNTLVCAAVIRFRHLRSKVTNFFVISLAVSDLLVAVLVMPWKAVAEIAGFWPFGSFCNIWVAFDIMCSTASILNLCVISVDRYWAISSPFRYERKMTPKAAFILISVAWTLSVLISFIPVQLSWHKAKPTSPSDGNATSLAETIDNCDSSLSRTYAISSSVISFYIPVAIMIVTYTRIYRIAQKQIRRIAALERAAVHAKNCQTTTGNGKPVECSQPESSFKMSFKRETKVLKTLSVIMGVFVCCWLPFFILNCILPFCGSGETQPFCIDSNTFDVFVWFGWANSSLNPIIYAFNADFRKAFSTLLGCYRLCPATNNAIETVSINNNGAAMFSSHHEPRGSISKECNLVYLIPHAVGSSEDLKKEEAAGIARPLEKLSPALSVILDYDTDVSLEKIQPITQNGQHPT

In the case of `Cc1ccc2c(c1)Oc1sc(C3CC3)cc1C(N1CCN(CC(C)(C)C(=O)O)CC1)=N2` [Example 2, 3-[4-(2-Cyclopropyl-8-methyl-thieno[2,3-b][1,5]benzoxazepin-4-yl)piperazin-1-yl]-2,2-dimethyl-propanoic acid dihydrochloride], the Ki (Dopamine D1) is reported as 996 nM, the “Rebound Insomnia Adj. Mean” value (male Wistar rats; 0.025 mg/kg PO) is reported as 0.40 min and the “Cumulative Total sleep Adj. Mean” value (male Wistar rats; 0.025 mg/kg PO) is reported as 3.6 min. For the same compound, the “REM inhibition Adj. Mean” value (male Wistar rats; 0.025 mg/kg PO) was 5.0 min, the “Average Sleep Bout Adj. Mean” value (male Wistar rats; 0.025 mg/kg PO) was 1.08 n-fold increase over vehicle controls and the “Longest Sleep Bout Adj. Mean” value (male Wistar rats; 0.025 mg/kg PO) was 1.26 n-fold increase over vehicle controls. For the same compound, the “Cumulative NREM sleep Adj. Mean” value (male Wistar rats; 0.025 mg/kg PO) was -2.3 min, the “Locomotor Activity Intensity Adj. Mean” value (male Wistar rats; 0.025 mg/kg PO) was −1.40 LMA counts per minute of EEG-defined wakefulness and the “Rebound Insomnia Adj. Mean” value (male Wistar rats; 0.1 mg/kg PO) was -0.027 min. For the same compound, the “Cumulative Total sleep Adj. Mean” value (male Wistar rats; 0.1 mg/kg PO) was 16.9 min, the “REM inhibition Adj. Mean” value (male Wistar rats; 0.1 mg/kg PO) was -0.71 min and the “Average Sleep Bout Adj. Mean” value (male Wistar rats; 0.1 mg/kg PO) was 1.19 n-fold increase over vehicle controls. The “Longest Sleep Bout Adj. Mean” value (male Wistar rats; 0.1 mg/kg PO) was 1.07 n-fold increase over vehicle controls, the “Cumulative NREM sleep Adj. Mean” value (male Wistar rats; 0.1 mg/kg PO) was 15.4 min and the “Locomotor Activity Intensity Adj. Mean” value (male Wistar rats; 0.1 mg/kg PO) was 0.41 LMA counts per minute of EEG-defined wakefulness. For the same compound, the “Rebound Insomnia Adj. Mean” value (male Wistar rats; 0.25 mg/kg PO) was 2.2 min, the “Cumulative Total sleep Adj. Mean” value (male Wistar rats; 0.25 mg/kg PO) was 23.0 min and the “REM inhibition Adj. Mean” value (male Wistar rats; 0.25 mg/kg PO) was 2.8 min. The “Average Sleep Bout Adj. Mean” value (male Wistar rats; 0.25 mg/kg PO) was 1.34 n-fold increase over vehicle controls, the “Longest Sleep Bout Adj. Mean” value (male Wistar rats; 0.25 mg/kg PO) was 1.55 n-fold increase over vehicle controls and the “Cumulative NREM sleep Adj. Mean” value (male Wistar rats; 0.25 mg/kg PO) was 19.1 min. The “Locomotor Activity Intensity Adj. Mean” value (male Wistar rats; 0.25 mg/kg PO) was −0.31 LMA counts per minute of EEG-defined wakefulness, the “Rebound Insomnia Adj. Mean” value (male Wistar rats; 0.5 mg/kg PO) was -5.0 min and the “Cumulative Total sleep Adj. Mean” value (male Wistar rats; 0.5 mg/kg PO) was 32.6 min. For the same compound, the “REM inhibition Adj. Mean” value (male Wistar rats; 0.5 mg/kg PO) was 2.3 min, the “Average Sleep Bout Adj. Mean” value (male Wistar rats; 0.5 mg/kg PO) was 1.59 n-fold increase over vehicle controls and the “Longest Sleep Bout Adj. Mean” value (male Wistar rats; 0.5 mg/kg PO) was 1.81 n-fold increase over vehicle controls. For the same compound, the “Cumulative NREM sleep Adj. Mean” value (male Wistar rats; 0.5 mg/kg PO) was 30.6 min, the “Locomotor Activity Intensity Adj. Mean” value (male Wistar rats; 0.5 mg/kg PO) was −1.30 LMA counts per minute of EEG-defined wakefulness and the “Rebound Insomnia Adj. Mean” value (male Wistar rats; 1 mg/kg PO) was -0.6 min. For the same compound, the “Cumulative Total sleep Adj. Mean” value (male Wistar rats; 1 mg/kg PO) was 33.2 min, the “REM inhibition Adj. Mean” value (male Wistar rats; 1 mg/kg PO) was 1.2 min and the “Average Sleep Bout Adj. Mean” value (male Wistar rats; 1 mg/kg PO) was 1.60 n-fold increase over vehicle controls. For the same compound, the “Longest Sleep Bout Adj. Mean” value (male Wistar rats; 1 mg/kg PO) was 2.16 n-fold increase over vehicle controls, the “Cumulative NREM sleep Adj. Mean” value (male Wistar rats; 1 mg/kg PO) was 31.0 min and the “Locomotor Activity Intensity Adj. Mean” value (male Wistar rats; 1 mg/kg PO) was −2.33 LMA counts per minute of EEG-defined wakefulness. The “Rebound Insomnia Adj. Mean” value (male Wistar rats; 3 mg/kg PO) was 1.6 min, the “Cumulative Total sleep Adj. Mean” value (male Wistar rats; 3 mg/kg PO) was 31.6 min and the “REM inhibition Adj. Mean” value (male Wistar rats; 3 mg/kg PO) was 0.042 min. The “Average Sleep Bout Adj. Mean” value (male Wistar rats; 3 mg/kg PO) was 1.92 n-fold increase over vehicle controls, the “Longest Sleep Bout Adj. Mean” value (male Wistar rats; 3 mg/kg PO) was 2.16 n-fold increase over vehicle controls and the “Cumulative NREM sleep Adj. Mean” value (male Wistar rats; 3 mg/kg PO) was 30.1 min. For the same compound, the “Locomotor Activity Intensity Adj. Mean” value (male Wistar rats; 3 mg/kg PO) was 0.01 LMA counts per minute of EEG-defined wakefulness, the “Rebound Insomnia Adj. Mean” value (male Wistar rats; 10 mg/kg PO) was 3.3 min and the “Cumulative Total sleep Adj. Mean” value (male Wistar rats; 10 mg/kg PO) was 26.3 min. The “REM inhibition Adj. Mean” value (male Wistar rats; 10 mg/kg PO) was -7.3 min, the “Average Sleep Bout Adj. Mean” value (male Wistar rats; 10 mg/kg PO) was 1.56 n-fold increase over vehicle controls and the “Longest Sleep Bout Adj. Mean” value (male Wistar rats; 10 mg/kg PO) was 2.12 n-fold increase over vehicle controls. For the same compound, the “Cumulative NREM sleep Adj. Mean” value (male Wistar rats; 10 mg/kg PO) was 26.9 min, the “Locomotor Activity Intensity Adj. Mean” value (male Wistar rats; 10 mg/kg PO) was −0.89 LMA counts per minute of EEG-defined wakefulness and the “REM sleep inhibition (in words)” value (male Wistar rats; at 3 mg/kg) was “without significant”. For the same compound, the “cumulative NREM sleep time (in words)” value (male Wistar rats; at 3 mg/kg) was “significantly increase”, the “cumulative total sleep time (in words)” value (male Wistar rats; at 3 mg/kg) was “significantly increase” and the “inhibition of locomotor intensity (LMI) (in words)” value (male Wistar rats; at 3 mg/kg) was “without significant”. For the same compound, the “rebound insomnia (in words)” value (male Wistar rats; at 3 mg/kg) was “without significant”, the “REM sleep inhibition versus threshold value” (male Wistar rats; at 10 mg/kg, threshold −10 min. cumulative REM sleep (lower confidence limit)) was “exceeds the threshold value” and the “change in awake time following treatment (dose response curve, FIG. 2)” value (male Wistar rats; dose response) was “does not result in rebound insomnia”. The “change in cumulative REM sleep time (dose response curve, FIG. 1)” value (male Wistar rats; dose response) was “does not inhibit REM sleep”, the “change in distances moved during periods of wakefulness (dose response curve, FIG. 3)” value (male Wistar rats; dose response) was “does not inhibit or stimulate normal activity” and the “Estimated efficacy dose (mg/kg), NREM accumulation = 30 min.” value (male Wistar rats; [1]) was 0.78 mg/kg. The “Estimated efficacy dose (mg/kg), average sleep bout (1.5-fold increase)” value (male Wistar rats; [1]) was 0.33 mg/kg, the “Estimated efficacy dose (mg/kg), longest sleep bout (1.75-fold increase)” value (male Wistar rats; [1]) was 0.33 mg/kg and the “Estimated efficacy dose (mg/kg), total sleep accumulation = 25 min.” value (male Wistar rats; [1]) was 0.19 mg/kg. For the same compound, the “undesired occurrences of REM inhibition” value (male Wistar rats; [2]) was “no undesired occurrences”, the “undesired occurrences of rebound insomnia” value (male Wistar rats; [2]) was “no undesired occurrences” and the “undesired occurrences of reduction in LMI” value (male Wistar rats; [2]) was “no undesired occurrences”.
